Measurements as given in US8445517B2, “Stat modulators” (Dana-Farber Cancer Institute, priority 2009, dated 2013).
“Also recorded” adds a separate entry of the source. Counter-ions that a name gives are not always drawn.

Key:
[1] = test system: Stat3; test: Stat3 luciferase reporter cell assay (U3A cells, IL-6 stimulated); format: cell-based; details: for Stat3-dependent luciferase activity, primary screen: library screen in 384-well plates, IL-6 stimulated; for enhancement of Stat3 function: Stat3-dependent luciferase screen; for induction of luciferase in the Stat3 reporter system: cytokine treatment, test of reporter specificity; for inhibition of Stat3 activity in validation studies: compounds tested individually, dose responses analyzed, selective versus NF-κB
Description: A cell-based assay system for each Stat1, Stat3 and Stat5 was developed to identify compounds that modulate the respective Stat activity. Although the details for each system are slightly different, as described below, the basic principle are the same. Appropriate cell lines (NIH3T3 for Stat1, U3A for Stat3, and T47D for Stat5) were transfected with a plasmid containing a luciferase reporter gene under the control of a promoter responsive to the indicated Stat, e.g., Stat1, Stat3 or Stat5, as well as a neomycin phosphotransferase cassette (BRIGHT GLO Luciferase Assay Kit available from Promega (Madison, Wis.). The reporter plasmid used in the Stat1 and Stat3 cell lines is described in Lynch et al., Cancer Research, 67:1254-61 (2007), which is herein incorporated by reference in its entirety. The nuclic acid binding sequence of Stat5 use in the reporter plasmid is denoted as region B in Walker et al., Oncogene, 26:224-233 (2007), which is herein incorporated by reference in its entirety.
Cells were selected in geneticin (G418) to isolate clones that had stably integrated the plasmid. Individual clones were isolated and luciferase expression was measured by luminometry in the presence and absence of a stimulator of the specific Stat of interest. Clones having a low basal luciferase expression, prominent induction by a specific stimulus (IFN-γ for Stat1, (IL)-6 for Stat3 and prolactin for Stat5), no induction with an irrelevant stimulus, and stable properties after prolonged cell culture or cryopreservation and thawing were selected. […] Several of these cell lines for each Stat construct were deposited with American Type Culture Collection of Manassas, Va. For example, cell lines having the Stat1 inducible promoter were deposited under ATCC Nos. Cell lines having the Stat3 inducible promoter were deposited under ATCC Nos. Cell lines having the Stat5 inducible promoter were deposited under ATCC numbers Nos.
To ensure the specificity of the reporter systems, the Stat3 reporter cell line and the NF-κB reporter system were compared. Each cell type was either untreated, treated with IL-6 (which activates Stat3 in both systems) or treated with TNF-α (which activates NF-κB in both).
All three cell-based screening systems were adapted for use in 384-well plates, which were then used to screen a library of 1120 compounds (the Prestwick Myeloma Collection available from Prestwick Chemical, Illkirch, France). […] Briefly, 2,500 cells are plated per well in 30 μl of medium in a 384 well plate and grown in Dulbecco's modified Eagle's medium (DMEM) supplemented with 10% fetal calf serum in an incubator with a 95% air/5% CO2 atmosphere at 37° C. After a 16 hour incubation to allow cells to adhere, 100 nl of the test compound is added per well and incubated for one hour, after which the activating cytokine (IFN-γ, IL-6, and prolactin, respectively) are added to each well in 10 μl of medium. After 6 hours, 40 μl of 0.5× Bright-Glo luciferase substrate (diluted in PBS) is added, and luciferase activity is quantitated on a Luminoskan luminometer (Helsinki, Finland).

[2] = test system: NF-κB; test: NF-κB luciferase reporter cell assay (293T cells, TNF-α stimulated); format: cell-based; details: for NF-κB activity, primary screen: NF-κB luciferase reporter, control for non-specific effects; for induction of luciferase in the NF-κB reporter cells: cytokine treatment, test of reporter specificity
Experimental: A parallel system was also developed in which luciferase was under the control of the transcription factor NF-κB (cell lines deposited on under ATCC Nos.). When these 293T cells are treated with tumor necrosis factor (TNF)-α, they show prominent induction of luciferase. This provided an independent control to exclude non-specific effects.
To ensure the specificity of the reporter systems, the Stat3 reporter cell line and the NF-κB reporter system were compared. Each cell type was either untreated, treated with IL-6 (which activates Stat3 in both systems) or treated with TNF-α (which activates NF-κB in both). IL-6 led to approximately a five-fold induction of luciferase in the Stat3 reporter system, but induced no change in the NF-κB reporter cells. Conversely, TNF-α induced a 12-fold induction of luciferase in the NF-κB reporter cells, but led to no change in the Stat3-reporter system. The Stat1 and Stat5 reporter systems show similar characteristics. All three cell-based screens are able to reproducibly identify active and specific compounds.
The compounds that show selective activity in the primary screen (e.g., 25% or more difference in luciferase activity in the presence versus the absence of the compound and less than 12% difference in luciferase activity in the Nf-κB assay in the presence versus the absence of the compound) were then validated in a dose-response assay using the appropriate reporter cell lines.

[3] = test system: endogenous Stat1 genes; test: Expression of endogenous Stat1 target genes (quantitative real-time PCR); format: cell-based
Experimental: This is followed by another confirmation assay utilizing quantitative real-time PCR measuring expression of endogenous target genes of each Stat. In this assay the cells are incubated as described above. However, after the incubation the cells are lysed and assessed for increased or decreased expression of target genes specific for the respective Stat molecule, e.g., Stat1, interferon-responsive factor (IRF)-1, GADD45[…], and IFI-16; for Stat3, SOCS3, BCL-6, and KLF-4; and, for Stat5, CIS, PIM-1, and MMP3.

[4] = test system: Stat1; test: Mechanistic studies of Stat1 tyrosine phosphorylation; format: cell-based
[5] = test system: Stat1; test: Stat1 luciferase reporter cell screen (NIH3T3 cells, IFN-γ stimulated); format: cell-based; details: screen for enhancers of Stat1 function
Experimental: A cell-based assay system for each Stat1, Stat3 and Stat5 was developed to identify compounds that modulate the respective Stat activity. Although the details for each system are slightly different, as described below, the basic principle are the same. […]
Cells were selected in geneticin (G418) to isolate clones that had stably integrated the plasmid. Individual clones were isolated and luciferase expression was measured by luminometry in the presence and absence of a stimulator of the specific Stat of interest. […]
All three cell-based screening systems were adapted for use in 384-well plates, which were then used to screen a library of 1120 compounds (the Prestwick Myeloma Collection available from Prestwick Chemical, Illkirch, France). […] After 6 hours, 40 μl of 0.5× Bright-Glo luciferase substrate (diluted in PBS) is added, and luciferase activity is quantitated on a Luminoskan luminometer (Helsinki, Finland). […]

[6] = test system: MCF-7 breast cancer cells; test: Growth inhibition by IFN-γ in breast cancer cells; format: cell-based, human; details: Stat1-dependent; MCF-7 cells (FIG. 8)

COc1cccc2c1C(=O)c1c(O)c3c(c(O)c1C2=O)C[C@@](O)(C(C)=O)C[C@@H]3O[C@H]1C[C@H](N)[C@H](O)[C@H](C)O1 [daunorubicin]
Stat3-dependent luciferase activity, primary screen [1]: inhibited both
NF-κB activity, primary screen [2]: inhibited both

deptropine citrate
enhancement of Stat3 function [1]: specifically enhance Stat3 function

O=C1c2c(O)ccc(O)c2C(=O)c2c(NCCNCCO)ccc(NCCNCCO)c21 [mitoxantrone]
Stat3-dependent luciferase activity, primary screen [1]: inhibited both
NF-κB activity, primary screen [2]: inhibited both

COc1cccc2c1C(=O)c1c(O)c3c(c(O)c1C2=O)C[C@@](O)(C(=O)CO)C[C@@H]3O[C@H]1C[C@H](N)[C@H](O)[C@H](C)O1 [doxorubicin]
Stat3-dependent luciferase activity, primary screen [1]: inhibited both
NF-κB activity, primary screen [2]: inhibited both

CC[N+](C)(CC)CCC[n+]1c(-c2ccccc2)c2cc(N)ccc2c2ccc(N)cc21.[I-].[I-] [propidium iodide]
Stat3-dependent luciferase activity, primary screen [1]: inhibited both
NF-κB activity, primary screen [2]: inhibited both

TNF-α
induction of luciferase in the Stat3 reporter system [1]: no change
induction of luciferase in the NF-κB reporter cells [2]: 12 fold

solanine alpha
inhibition of Stat3 activity in validation studies [1]: significantly and specifically inhibit Stat3 activity

Nc1ncnc2c1ncn2[C@@H]1O[C@H](COP(=O)(O)O)[C@@H](O)[C@H]1O.O [adenosine 5′-monophosphate monohydrate]
enhancement of Stat3 function [1]: specifically enhance Stat3 function

COC(=O)Nc1nc2ccc(C(=O)c3ccccc3)cc2[nH]1 [mebendazole]
enhancement of Stat3 function [1]: specifically enhance Stat3 function

NC(=O)c1ncn([C@@H]2O[C@H](CO)[C@@H](O)[C@H]2O)n1 [ribavirin]
enhancement of Stat3 function [1]: specifically enhance Stat3 function

C[C@@H]1C[C@@H]([C@H](O)CC2CC(=O)NC(=O)C2)C(=O)[C@@H](C)C1 [cycloheximide]
Stat3-dependent luciferase activity, primary screen [1]: inhibited both
NF-κB activity, primary screen [2]: inhibited both

COc1cc([C@@H]2c3cc4c(cc3[C@H](O)[C@H]3COC(=O)[C@H]23)OCO4)cc(OC)c1OC [podophyllotoxin]
enhancement of Stat3 function [1]: specifically enhance Stat3 function

CN(C)C/C=C(/c1ccc(Br)cc1)c1cccnc1 [zimelidine dihydrochloride monohydrate]
enhancement of Stat3 function [1]: specifically enhance Stat3 function

O=S1(=O)CCC(OC2CCS(=O)(=O)C2)C1 (stereo not drawn) [3,3′-oxybis[tetrahydrothiophene, 1,1,1′,1′-tetraoxide]
Stat3 modulator class as named in figure legend [1]: Stat3 inhibitor

C=CCc1ccccc1OCC(O)CNC(C)C (stereo not drawn) [alprenolol hydrochloride]
inhibition of Stat3 activity in validation studies [1]: significantly and specifically inhibit Stat3 activity

O=C(N/N=C/c1ccc([N+](=O)[O-])o1)c1ccc(O)cc1 [nifuroxazide]
inhibition of Stat3 activity in validation studies [1]: significantly and specifically inhibit Stat3 activity

CCOC(=O)Nc1ccc2c(c1)N(C(=O)CCN1CCOCC1)c1ccccc1S2 [moricizine hydrochloride]
inhibition of Stat3 activity in validation studies [1]: significantly and specifically inhibit Stat3 activity

Oc1ccccc1-c1ccc2cccnc2n1 [2-(1,8-Naphthyridin-2-yl)phenol]
expression of endogenous Stat1 genes [3]: enhanced
magnitude and duration of Stat1 tyrosine phosphorylation [4]: increasing
Stat1 modulator class as named in figure legend [5]: Stat1 activator
growth inhibitory effects of IFN-γ on human breast cancer cell lines [6]: accentuated; also recorded: enhances

COC(=O)Nc1nc2ccc(C(=O)c3cccs3)cc2[nH]1 [nocodazole]
enhancement of Stat3 function [1]: specifically enhance Stat3 function

CNCCC(Oc1ccc(C(F)(F)F)cc1)c1ccccc1 (stereo not drawn) [fluoxetine hydrochloride]
inhibition of Stat3 activity in validation studies [1]: significantly and specifically inhibit Stat3 activity

IL-6: cytokine which activates Stat3; specific stimulus of the Stat3 reporter
induction of luciferase in the Stat3 reporter system [1]: five-fold
induction of luciferase in the NF-κB reporter cells [2]: no change

N=C(N)N/N=C/c1c(Cl)cccc1Cl [guanabenz acetate]
inhibition of Stat3 activity in validation studies [1]: significantly and specifically inhibit Stat3 activity

O=P1(NCCCl)OCCCN1CCCl (stereo not drawn) [ifosfamide]
inhibition of Stat3 activity in validation studies [1]: significantly and specifically inhibit Stat3 activity

CNCCC=C1c2ccccc2CCc2ccccc21 [nortriptyline hydrochloride]
enhancement of Stat3 function [1]: specifically enhance Stat3 function

CN(C)CCCN1c2ccccc2Sc2ccccc21 [promazine hydrochloride]
enhancement of Stat3 function [1]: specifically enhance Stat3 function

CCCN(CCC)C(=O)CC(c1ccccc1)c1ccccc1O (stereo not drawn) [3-(2-hydroxyphenyl)-3-phenyl-N,N-dipropylpropanamide]
inhibition of Stat3 activity in validation studies [1]: significantly and specifically inhibit Stat3 activity
